{
  "source": "patent US9586945B2",
  "about": "“Aminochromane, aminothiochromane and amino-1,2,3,4-tetrahydroquinoline derivatives, pharmaceutical compositions containing them, and their use in therapy” (AbbVie Deutschland GmbH & Co. KG, priority 2013, dated 2017)",
  "data": [
    {"biological_target": "human GlyT1c transporter (Homo sapiens (Human), UniProt P48067)", "sequence (P48067 whole entry)": "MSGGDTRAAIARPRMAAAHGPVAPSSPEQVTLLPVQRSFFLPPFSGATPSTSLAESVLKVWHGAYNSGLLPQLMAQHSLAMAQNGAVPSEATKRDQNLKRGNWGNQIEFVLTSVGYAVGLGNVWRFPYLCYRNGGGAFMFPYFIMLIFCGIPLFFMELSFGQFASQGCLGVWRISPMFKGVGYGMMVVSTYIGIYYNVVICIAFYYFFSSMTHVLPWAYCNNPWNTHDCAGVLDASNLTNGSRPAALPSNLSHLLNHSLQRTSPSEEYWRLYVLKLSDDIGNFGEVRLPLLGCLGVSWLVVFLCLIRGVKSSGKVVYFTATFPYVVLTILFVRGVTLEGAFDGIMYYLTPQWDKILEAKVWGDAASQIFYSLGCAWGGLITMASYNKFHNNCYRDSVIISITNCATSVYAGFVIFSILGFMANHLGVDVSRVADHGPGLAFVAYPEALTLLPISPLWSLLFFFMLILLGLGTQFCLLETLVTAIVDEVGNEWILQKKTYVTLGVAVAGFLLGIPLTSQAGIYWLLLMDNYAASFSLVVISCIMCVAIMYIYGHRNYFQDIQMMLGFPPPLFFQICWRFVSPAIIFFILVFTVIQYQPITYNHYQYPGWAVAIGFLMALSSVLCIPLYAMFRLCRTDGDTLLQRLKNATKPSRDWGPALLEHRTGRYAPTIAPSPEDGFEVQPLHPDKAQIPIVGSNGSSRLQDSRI", "assay": "Radioligand binding assay using recombinant CHO cell membranes expressing human GlyT1", "conditions": "examples marked * tested as fumarate salts, read-out: radioligand binding Kiapp", "units": {"Ki": "nM"}, "values": [
      {"smiles": "CNC1COc2cc(F)c(N3CC(NS(=O)(=O)c4cnn(C)c4)C3)cc2C1Cc1ccccc1", "note": "(single isomer, unassigned) [Example 17b, trans-N-(1-(4-benzyl-7-fluoro-3-(methylamino)chroman-6-yl)azetidin-3-yl)-1-methyl-1H-pyrazole-4-sulfonamide]", "Ki": "≤ 10"},
      {"smiles": "CCCS(=O)(=O)NC1CN(c2cc3c(cc2F)OCC(NC)C3Cc2ccccc2)C1", "note": "(single isomer, unassigned) [Example 16a, Cis-N-(1-(4-benzyl-7-fluoro-3-(methylamino)chroman-6-yl)azetidin-3-yl)propane-1-sulfonamide]", "Ki": "≤ 10"},
      {"smiles": "CCS(=O)(=O)NC1CN(c2cc3c(cc2F)OCC(NC)C3Cc2ccccc2)C1", "note": "(single isomer, unassigned) [Example 14b, trans-N-(1-(4-benzyl-7-fluoro-3-(methylamino)chroman-6-yl)azetidin-3-yl)ethanesulfonamide]", "Ki": "≤ 100"},
      {"smiles": "CNC1COc2cc(F)c(N3CC(NS(=O)(=O)CC4CC4)C3)cc2C1Cc1ccccc1", "note": "(single isomer, unassigned) [Example 19a, Cis-N-(1-(4-benzyl-7-fluoro-3-(methylamino)chroman-6-yl)azetidin-3-yl)-1-cyclopropylmethanesulfonamide]", "Ki": "≤ 10"},
      {"smiles": "CNC1COc2cc(F)c(N3CC(NS(=O)(=O)CC4CC4)C3)cc2C1Cc1ccccc1", "note": "(single isomer, unassigned) [Example 19b, trans-N-(1-(4-benzyl-7-fluoro-3-(methylamino)chroman-6-yl)azetidin-3-yl)-1-cyclopropylmethanesulfonamide]", "Ki": "≤ 10"},
      {"smiles": "CNC1COc2cc(F)c(N3CC(NS(=O)(=O)c4cn(C)nn4)C3)cc2C1Cc1ccccc1", "note": "(single isomer, unassigned) [Example 18a, Cis-N-(1-(4-benzyl-7-fluoro-3-(methylamino)chroman-6-yl)azetidin-3-yl)-1-methyl-1H-1,2,3-triazole-4-sulfonamide]", "Ki": "≤ 10"},
      {"smiles": "CCCS(=O)(=O)NC1CN(c2ccc3c(c2)[C@H](Cc2ccccc2)[C@H](N)CO3)C1", "note": "(relative stereo) [Example 20, Cis-N-(1-(3-amino-4-benzylchroman-6-yl)azetidin-3-yl)propane-1-sulfonamide]", "Ki": "≤ 100"},
      {"smiles": "CNC1COc2cc(F)c(N3CC(NS(=O)(=O)c4cn(C)cn4)C3)cc2C1Cc1ccccc1", "note": "(single isomer, unassigned) [Example 15b, trans-N-(1-(4-benzyl-7-fluoro-3-(methylamino)chroman-6-yl)azetidin-3-yl)-1-methyl-1H-imidazole-4-sulfonamide]", "Ki": "≤ 10"},
      {"smiles": "CCn1cc(S(=O)(=O)NC2CN(c3cc4c(cc3F)OC[C@@H](N3CCC3)[C@H]4Cc3ccccc3)C2)nn1", "note": "(relative stereo) [Example 7, Cis-N-(1-(3-(azetidin-1-yl)-4-benzyl-7-fluorochroman-6-yl)azetidin-3-yl)-1-ethyl-1H-1,2,3-triazole-4-sulfonamide]", "Ki": "≤ 100"},
      {"smiles": "CCS(=O)(=O)NC1CN(c2cc3c(cc2F)OCC(NC)C3Cc2ccccc2)C1", "note": "(single isomer, unassigned) [Example 14a, Cis-N-(1-(4-benzyl-7-fluoro-3-(methylamino)chroman-6-yl)azetidin-3-yl)ethanesulfonamide]", "Ki": "≤ 100"},
      {"smiles": "CNC1COc2cc(F)c(N3CC(NS(=O)(=O)c4cn(C)nn4)C3)cc2C1Cc1ccccc1", "note": "(single isomer, unassigned) [Example 18b, trans-N-(1-(4-benzyl-7-fluoro-3-(methylamino)chroman-6-yl)azetidin-3-yl)-1-methyl-1H-1,2,3-triazole-4-sulfonamide]", "Ki": "≤ 10"},
      {"smiles": "CNC1COc2cc(F)c(N3CC(NS(=O)(=O)c4cnn(C)c4)C3)cc2C1Cc1ccccc1", "note": "(single isomer, unassigned) [Example 17a, Cis-N-(1-(4-benzyl-7-fluoro-3-(methylamino)chroman-6-yl)azetidin-3-yl)-1-methyl-1H-pyrazole-4-sulfonamide]", "Ki": "≤ 10"}
    ]}
  ]
}
